# According to ChEMBL document CHEMBL4433257, “Novel conjugates of podophyllotoxin and coumarin: Synthesis, cytotoxicities, cell cycle arrest, binding CT DNA and inhibition of Topo IIβ” (Bioorg Med Chem Lett, 2019):
# Activity calls are given as the source filed them. No cut-off for these calls is given here.
# Columns and labels:
# HeLa = assay: Cytotoxicity against human HeLa cells incubated for 48 hrs by MTT assay; type: functional, cell-based
# LoVo [1] = assay: Cytotoxicity against human LoVo cells incubated for 48 hrs by MTT assay; type: functional, cell-based
# HepG2 = assay: Cytotoxicity against human HepG2 cells incubated for 48 hrs by MTT assay; type: functional, cell-based; settings: HepG2, 48 h
# A549 = assay: Cytotoxicity against human A549 cells incubated for 48 hrs by MTT assay; type: functional, cell-based; settings: A549, 48 h
# LoVo [2] = assay: Cell cycle arrest in human LoVo cells assessed as accumulation at G1 phase at 5 uM incubated for 24 hrs by propidium iodide staining based flow cytometry analysis (reference value: 51.9%); type: functional
# LoVo [3] = assay: Induction of cell cycle arrest in human LoVo cells assessed as decrease in cyclin D1 gene expression level at 10 uM incubated for 24 hrs by Western blot analysis; type: functional, cell-based
# LoVo [4] = assay: Antiproliferative activity against human LoVo cells assessed as nuclear changes at 10 uM incubated for 6 hrs by immunofluorescence microscopy assay; type: functional, cell-based
# LoVo [5] = assay: Induction of cell cycle arrest in human LoVo cells assessed as decrease in topo 2alpha expression level at 5 uM incubated for 12 hrs by Western blot analysis; type: functional, cell-based
# LoVo [6] = assay: Induction of cell cycle arrest in human LoVo cells assessed as change in cyclin D1 gene expression level at 10 uM incubated for 24 hrs by Western blot analysis; type: functional, cell-based
# LoVo [7] = assay: Antiproliferative activity against human LoVo cells assessed as disorganization of microtubule network at 10 uM incubated for 6 hrs by immunofluorescence microscopy assay; type: functional, cell-based
# LoVo [8] = assay: Induction of cell cycle arrest in human LoVo cells assessed as change in P21 gene expression level at 10 uM incubated for 24 hrs by Western blot analysis; type: functional, cell-based
# LoVo [9] = assay: Induction of cell cycle arrest in human LoVo cells assessed as decrease in topo 2beta expression level at 5 uM incubated for 12 hrs by Western blot analysis; type: functional, cell-based
# LoVo [10] = assay: Cell cycle arrest in human LoVo cells assessed as accumulation at G1 phase at 5 uM incubated for 72 hrs by propidium iodide staining based flow cytometry analysis relative to control; type: functional
# LoVo [11] = assay: Induction of cell cycle arrest in human LoVo cells assessed as change in cdc2 gene expression level at 10 uM incubated for 24 hrs by Western blot analysis; type: functional, cell-based
# LoVo [12] = assay: Cell cycle arrest in human LoVo cells assessed as decrease in G2/M phase cell count incubated for 24 hrs by propidium iodide staining based flow cytometry analysis; type: functional
# LoVo [13] = assay: Antiproliferative activity against human LoVo cells assessed as abnormal mitotic spindle formation at 20 uM incubated for 6 hrs by immunofluorescence microscopy assay; type: functional, cell-based
# LoVo [14] = assay: Antiproliferative activity against human LoVo cells assessed as meshy microtubule network shrinkage around nucleus incubated for 6 hrs by immunofluorescence microscopy assay; type: functional, cell-based
# LoVo [15] = assay: Induction of cell cycle arrest in human LoVo cells assessed as change in cyclin B1 gene expression level at 1 to 10 uM incubated for 24 hrs by Western blot analysis; type: functional, cell-based
# LoVo [16] = assay: Induction of cell cycle arrest in human LoVo cells assessed as change in cdc2 gene expression level at 1 to 10 uM incubated for 24 hrs by Western blot analysis; type: functional, cell-based
# Calf thymus DNA [17] = assay: Binding affinity to calf thymus DNA assessed as reduction in absorbance of DNA at 50 uM using varying DNA level by UV/visible spectrophotometric analysis; type: nucleic-acid assay; settings: Bos taurus
# Calf thymus DNA [18] = assay: Binding affinity to calf thymus DNA assessed as reduction in compound emission intensity at 10 uM using varying DNA level by spectrofluorimetric analysis; type: nucleic-acid assay; settings: Bos taurus
# LoVo [19] = assay: Antiproliferative activity against human LoVo cells assessed as disruption of microtubule organization at 10 to 20 uM incubated for 6 hrs by immunofluorescence microscopy assay; type: functional, cell-based
# Calf thymus DNA [20] = assay: Binding affinity to calf thymus DNA assessed as reduction in absorbance of DNA at 20 to 40 uM by UV/visible spectrophotometric analysis; type: nucleic-acid assay; settings: Bos taurus
# LoVo [21] = assay: Cell cycle arrest in human LoVo cells assessed as increase in accumulation at G1 phase incubated for 24 hrs by propidium iodide staining based flow cytometry analysis; type: functional
# LoVo [22] = assay: Cell cycle arrest in human LoVo cells assessed as accumulation at G1 phase at 5 uM incubated for 48 hrs by propidium iodide staining based flow cytometry analysis relative to control; type: functional
# LoVo [23] = assay: Induction of cell cycle arrest in human LoVo cells assessed as increase in P21 gene expression level incubated for 24 hrs by Western blot analysis; type: functional, cell-based
# LoVo [24] = assay: Antiproliferative activity against human LoVo cells assessed as induction of nuclei damage at 10 to 20 uM incubated for 6 hrs by immunofluorescence microscopy assay; type: functional, cell-based
# LoVo [25] = assay: Cell cycle arrest in human LoVo cells assessed as accumulation at G1 phase at 10 uM incubated for 24 hrs by propidium iodide staining based flow cytometry analysis (reference value: 51.9%); type: functional
# LoVo [26] = assay: Antiproliferative activity against human LoVo cells assessed as interference with mitosis at 10 to 20 uM incubated for 6 hrs by immunofluorescence microscopy assay; type: functional, cell-based
# LoVo [27] = assay: Antiproliferative activity against human LoVo cells assessed as induction of nuclear cleavage at 20 uM incubated for 6 hrs by immunofluorescence microscopy assay; type: functional, cell-based
# LoVo [28] = assay: Induction of cell cycle arrest in human LoVo cells assessed as decrease in cyclin D1 gene expression level incubated for 24 hrs by Western blot analysis; type: functional, cell-based
smiles,measurement,setting,value
COc1cc([C@@H]2c3cc4c(cc3[C@@H](n3cc(CNc5cc(=O)oc6ccc(C)cc56)nn3)[C@H]3COC(=O)[C@H]23)OCO4)cc(OC)c1O,IC50,HeLa,38.3 µM
same,IC50,LoVo [1],76 µM
same,IC50,HepG2,17.2 µM
same,IC50,A549,34.8 µM
COc1ccc2c(NCc3cn([C@@H]4c5cc6c(cc5[C@@H](c5cc(OC)c(O)c(OC)c5)[C@H]5C(=O)OC[C@@H]54)OCO6)nn3)cc(=O)oc2c1,IC50,HeLa,48.2 µM
same,IC50,LoVo [1],12.6 µM
same,IC50,HepG2,11.1 µM
same,IC50,A549,28.1 µM
COc1ccc2oc(=O)cc(OCc3cn([C@@H]4c5cc6c(cc5[C@@H](c5cc(OC)c(O)c(OC)c5)[C@H]5C(=O)OC[C@@H]54)OCO6)nn3)c2c1,IC50,HeLa,18.3 µM
same,IC50,LoVo [1],9.4 µM
same,IC50,HepG2,8 µM
same,IC50,A549,19.6 µM
COc1cc([C@@H]2c3cc4c(cc3[C@@H](O[C@@H]3O[C@@H]5CO[C@@H](C)O[C@H]5[C@H](O)[C@H]3O)[C@H]3COC(=O)[C@H]23)OCO4)cc(OC)c1O [ETOPOSIDE],IC50,LoVo [1],14.9 µM
same,Activity,LoVo [2],29.5%
same,Activity,LoVo [3],Active
same,Activity,LoVo [4],inactive
same,IC50,HepG2,10.5 µM
same,Activity,LoVo [5],Active
same,Activity,LoVo [6],Active
same,Activity,LoVo [7],Active
same,Activity,LoVo [8],Active
same,Activity,LoVo [9],Active
same,Activity,LoVo [10],2%
same,IC50,A549,25.6 µM
same,Activity,LoVo [11],Active
COc1cc([C@@H]2c3cc4c(cc3[C@@H](n3cc(COc5cc(=O)oc6ccccc56)nn3)[C@H]3COC(=O)[C@H]23)OCO4)cc(OC)c1O,IC50,HeLa,32.2 µM
same,IC50,LoVo [1],40.8 µM
same,IC50,HepG2,31.3 µM
same,IC50,A549,> 100 µM
COc1cc([C@@H]2c3cc4c(cc3[C@@H](n3cc(COc5cc(=O)oc6ccc(C)cc56)nn3)[C@H]3COC(=O)[C@H]23)OCO4)cc(OC)c1O,IC50,HeLa,45.4 µM
same,IC50,LoVo [1],33.2 µM
same,IC50,HepG2,40.2 µM
same,IC50,A549,> 100 µM
COc1cc([C@@H]2c3cc4c(cc3[C@@H](n3cc(COc5cc(=O)oc6ccc(Br)cc56)nn3)[C@H]3COC(=O)[C@H]23)OCO4)cc(OC)c1O,IC50,HeLa,20.1 µM
same,IC50,LoVo [1],19.8 µM
same,IC50,HepG2,4 µM
same,IC50,A549,27.7 µM
COc1cc([C@@H]2c3cc4c(cc3[C@@H](n3cc(CNc5cc(=O)oc6ccccc56)nn3)[C@H]3COC(=O)[C@H]23)OCO4)cc(OC)c1O,IC50,HeLa,27.2 µM
same,IC50,LoVo [1],38.6 µM
same,IC50,HepG2,27.5 µM
same,IC50,A549,21.4 µM
COc1cc([C@@H]2c3cc4c(cc3[C@@H](n3cc(COc5cc(=O)oc6cc(Br)ccc56)nn3)[C@H]3COC(=O)[C@H]23)OCO4)cc(OC)c1O,IC50,HeLa,> 100 µM
same,IC50,LoVo [1],24.2 µM
same,IC50,HepG2,15.6 µM
same,IC50,A549,23.8 µM
COc1ccc2oc(=O)cc(NCc3cn([C@@H]4c5cc6c(cc5[C@@H](c5cc(OC)c(O)c(OC)c5)[C@H]5C(=O)OC[C@@H]54)OCO6)nn3)c2c1,IC50,HeLa,9.7 µM
same,IC50,LoVo [1],4.9 µM
same,Activity,LoVo [2],62%
same,Activity,LoVo [12],Dose-dependent effect
same,Activity,LoVo [13],Active
same,Activity,LoVo [14],Active
same,Activity,LoVo [15],inactive
same,IC50,HepG2,9.9 µM
same,Activity,LoVo [5],Active
same,Activity,LoVo [16],inactive
same,Activity,Calf thymus DNA [17],inactive
same,Activity,LoVo [9],Active
same,Activity,Calf thymus DNA [18],Active
same,Activity,LoVo [19],Active
same,Activity,Calf thymus DNA [20],Active
same,Activity,LoVo [21],Dose-dependent effect
same,Activity,LoVo [10],90%
same,Activity,LoVo [22],70.1%
same,Activity,LoVo [23],Dose-dependent effect
same,Activity,LoVo [24],Active
same,IC50,A549,17.5 µM
same,Activity,LoVo [25],79%
same,Activity,LoVo [26],Active
same,Activity,LoVo [27],Active
same,Activity,LoVo [28],Dose-dependent effect
COc1ccc2c(OCc3cn([C@@H]4c5cc6c(cc5[C@@H](c5cc(OC)c(O)c(OC)c5)[C@H]5C(=O)OC[C@@H]54)OCO6)nn3)cc(=O)oc2c1,IC50,HeLa,> 100 µM
same,IC50,LoVo [1],> 100 µM
same,IC50,HepG2,27.5 µM
same,IC50,A549,40.3 µM
COc1cc([C@@H]2c3cc4c(cc3[C@@H](n3cc(CNc5cc(=O)oc6ccc(Br)cc56)nn3)[C@H]3COC(=O)[C@H]23)OCO4)cc(OC)c1O,IC50,HeLa,15.2 µM
same,IC50,LoVo [1],8.7 µM
same,IC50,HepG2,9.3 µM
same,IC50,A549,8.6 µM
COc1cc([C@@H]2c3cc4c(cc3[C@@H](n3cc(CNc5cc(=O)oc6cc(Br)ccc56)nn3)[C@H]3COC(=O)[C@H]23)OCO4)cc(OC)c1O,IC50,HeLa,19.8 µM
same,IC50,LoVo [1],7.3 µM
same,IC50,HepG2,13.6 µM
same,IC50,A549,13.3 µM
